In paper PMC7465344 (Pharmaceuticals, 2020):
Where “and” joins values, the source holds several entries; their conditions need not be identical. Identical values can stand only once. Like-named read-outs stand apart in the source and are kept apart here.

How the values were obtained:
hA1 AR = target: T1, hA1 AR (Homo sapiens, UniProt P30542); test: Competition binding of [3H]DPCPX to hA1 AR in CHO cell membranes; conditions: for inhibition at 10 µM: read-out: hA1AR percentage of inhibition (I%)
T1 sequence (P30542 1-326): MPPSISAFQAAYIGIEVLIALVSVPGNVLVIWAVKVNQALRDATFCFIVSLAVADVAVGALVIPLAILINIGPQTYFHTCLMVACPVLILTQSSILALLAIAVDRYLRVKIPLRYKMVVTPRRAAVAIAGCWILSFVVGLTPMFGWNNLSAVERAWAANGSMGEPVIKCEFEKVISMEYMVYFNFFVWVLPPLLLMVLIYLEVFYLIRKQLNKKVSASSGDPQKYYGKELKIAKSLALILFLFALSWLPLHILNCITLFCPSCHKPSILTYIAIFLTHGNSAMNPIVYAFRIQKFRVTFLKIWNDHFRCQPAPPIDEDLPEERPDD
Procedure: (§1) For membrane preparation, the cells were washed with phosphate-buffered saline and scraped off T75 flasks in an ice-cold hypotonic buffer (5 mMTris-HCl, 1 mM EDTA, pH 7.4). The cell suspensions were homogenized with a Polytron, centrifuged for 30 min at 40,000× g at 4 °C and the resulting membrane pellets were used for competition binding experiments [44].
(§2) Non-specific binding was defined as binding in the presence of 1 μM DPCPX and was always <10% of the total binding [44]. […] Non-specific binding was defined as binding in the presence of 1 μM ABMECA and was always < 10% of the total binding [46]. Bound and free radioactivity were separated by filtering the assay mixture through Whatman GF/B glass fiber filters using a Brandel cell harvester (Brandel Instruments, Unterföhring, Germany).
(§3) The protein concentration was determined according to a Bio-Rad method with bovine albumin as a standard reference. […] Ki and IC50 values were calculated by the non-linear regression analysis using the equation for a sigmoid concentration-response curve (Graph-PAD Prism, San Diego, CA, USA).

hA3 AR = target: T2, hA3 AR (Homo sapiens, UniProt P0DMS8); test: Competition binding of [125I]AB-MECA to hA3 AR in CHO cell membranes; conditions: for inhibition at 10 µM: read-out: hA3AR percentage of inhibition (I%)
T2 sequence (P0DMS8 1-318): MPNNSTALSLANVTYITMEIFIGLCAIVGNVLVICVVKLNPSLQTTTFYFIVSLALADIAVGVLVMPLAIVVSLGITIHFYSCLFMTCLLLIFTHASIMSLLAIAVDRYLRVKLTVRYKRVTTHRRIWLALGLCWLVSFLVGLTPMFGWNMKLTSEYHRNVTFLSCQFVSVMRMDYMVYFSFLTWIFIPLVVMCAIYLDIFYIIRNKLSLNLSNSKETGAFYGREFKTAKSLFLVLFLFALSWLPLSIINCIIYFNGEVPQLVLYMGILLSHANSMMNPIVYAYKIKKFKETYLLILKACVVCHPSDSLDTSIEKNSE
Procedure: as §1, §2, §3

hA2A AR [1] = target: T3, hA2A AR (Homo sapiens, UniProt P29274); test: Competition binding of [3H]ZM241385 to hA2A AR in CHO cell membranes
Procedure: as §1, §2, §3

hA2B AR = target: T4, hA2B AR (Homo sapiens, UniProt P29275); test: Inhibition of NECA stimulated adenylyl cyclase activity (cAMP assay) in CHO cells expressing hA2B receptor; format: cell-based; conditions: for inhibition at 10 µM: CHO, at 10 μM of tested compound, cAMP assay, read-out: hA2BAR percentage of inhibition (I%); for IC50: NECA stimulated cAMP, hA2B CHO cells, read-out: hA2BAR IC50 (potency in cAMP assay)
T4 construct: expressed in transfected cells; host or cells: CHO cells
T4 sequence (P29275 1-332): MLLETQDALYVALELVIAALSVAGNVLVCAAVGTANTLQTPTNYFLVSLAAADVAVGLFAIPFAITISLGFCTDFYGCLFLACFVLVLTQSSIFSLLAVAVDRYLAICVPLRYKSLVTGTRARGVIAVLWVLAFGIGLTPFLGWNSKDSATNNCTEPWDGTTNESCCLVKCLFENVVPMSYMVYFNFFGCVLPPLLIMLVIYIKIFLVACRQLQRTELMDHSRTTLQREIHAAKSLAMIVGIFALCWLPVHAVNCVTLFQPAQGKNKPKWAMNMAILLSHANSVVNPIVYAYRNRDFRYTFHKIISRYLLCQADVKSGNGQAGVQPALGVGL
Text: At the end of the experiments, plates were read with the Perkin Elmer EnSight Multimode Plate Reader.

hA2A AR [2] = target: T3, hA2A AR; test: Cyclic AMP assay in CHO cells expressing hA2A AR (modulation of basal cAMP); conditions: for Pharmacological Behavior / Intrinsic Activity: cyclic AMP assay, hA2A CHO cells; for Intrinsic Activity: mean ± SEM
Procedure: CHO cells transfected with hAR subtypes were washed with phosphate-buffered saline, detached with trypsin, and centrifuged for 10 min at 200× g. […] At the end of the experiments, plates were read with the Perkin Elmer EnSight Multimode Plate Reader.
Ki and IC50 values were calculated by the non-linear regression analysis using the equation for a sigmoid concentration-response curve (Graph-PAD Prism, San Diego, CA, USA).

T3 sequence (P29274 whole entry): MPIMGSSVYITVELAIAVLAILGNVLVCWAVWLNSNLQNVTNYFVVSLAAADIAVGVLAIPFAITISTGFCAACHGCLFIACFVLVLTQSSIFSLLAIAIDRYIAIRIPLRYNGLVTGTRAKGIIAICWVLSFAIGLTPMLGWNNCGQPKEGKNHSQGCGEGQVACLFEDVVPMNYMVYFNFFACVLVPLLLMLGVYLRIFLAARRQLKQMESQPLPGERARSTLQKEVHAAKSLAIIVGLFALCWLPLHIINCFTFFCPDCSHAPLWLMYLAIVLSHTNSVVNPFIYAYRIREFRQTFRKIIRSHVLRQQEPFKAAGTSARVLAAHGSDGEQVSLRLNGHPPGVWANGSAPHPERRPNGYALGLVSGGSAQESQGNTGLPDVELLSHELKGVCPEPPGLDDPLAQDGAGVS

SMILES	Ki (hA1 AR) [nM]	Ki (hA3 AR) [nM]	inhibition at 10 µM (hA3 AR) [%]	Ki (hA2A AR [1]) [nM]	inhibition at 10 µM (hA2B AR) [%]	IC50 (hA2B AR) [nM]	inhibition at 10 µM (hA1 AR) [%]	inhibition at 10 µM (hA2A AR [1]; read-out: hA2AAR percentage of inhibition (I%)) [%]	melting point [°C]	IC50 (hA2A AR [2]) [nM]	Pharmacological Behavior (hA2A AR [2])	Intrinsic Activity (hA2A AR [2])	Ki (hA3 AR; read-out: hA3AR Ki, displacement of [125I]AB-MECA, CHO cells, mean ± SEM, n = 3–6) [nM]	hA1AR Ki (hA1 AR; displacement of [3H]DPCPX, CHO cells, mean ± SEM, n = 3–6)	Ki (hA2A AR [1]; read-out: hA2AAR Ki, displacement of [3H]ZM241385, CHO cells, mean ± SEM, n = 3–6)
COCCN1CCC(CNc2nc(N)c3nc(-c4ccco4)sc3n2)CC1 [compound 18, 2-(Furan-2-yl)-N^5-((1-(2-methoxyethyl)piperidin-4-yl)methyl)thiazolo[5,4-d]pyrimidine-5,7-diamine]	524 ± 41	> 10000	28	802 ± 73	11	> 10000									
CCOC(=O)c1ccc(CNc2nc(N)c3nc(-c4ccco4)sc3n2)cc1 [compound 17, Ethyl 4-(((7-amino-2-(furan-2-yl)thiazolo[5,4-d]pyrimidin-5-yl)amino)methyl)benzoate]	> 10000	> 10000	28	> 10000	17	> 10000	29	33							
COCCOc1ccc(N2CCN(c3nc(N)c4nc(-c5ccco5)sc4n3)CC2)cc1 [compound 5, 2-(Furan-2-yl)-5-(4-(4-(2-methoxyethoxy)phenyl)piperazin-1-yl)thiazolo[5,4-d]pyrimidin-7-amine]	2350 ± 213	127 ± 15		326 ± 27	7	> 10000									
Nc1nc(N2CCN(c3ccccc3)CC2)nc2sc(-c3ccco3)nc12 [compound 2, 2-(Furan-2-yl)-5-(4-phenylpiperazin-1-yl)thiazolo[5,4-d]pyrimidin-7-amine]	296 ± 22	> 10000	18		15	> 10000									
Nc1nc(N2CCC(Cc3ccccc3)CC2)nc2sc(-c3ccco3)nc12 [compound 1, 5-(4-Benzylpiperidin-1-yl)-2-(furan-2yl)thiazolo[5,4-d]pyrimidin-7-amine]	586 ± 37	> 10000	8	594 ± 48	21	> 10000			197 to 199						
Nc1nc(NCCN2CCC(Cc3ccccc3)CC2)nc2sc(-c3ccco3)nc12 [compound 10, N^5-(2-(4-Benzylpiperidin-1-yl)ethyl)-2-(furan-2-yl)thiazolo[5,4-d]pyrimidine-5,7-diamine]	725 ± 67	> 10000	22	187 ± 16	22	> 10000			155 to 157						
COCCOc1ccc(N2CCN(CCNc3nc(N)c4nc(-c5ccco5)sc4n3)CC2)cc1 [compound 14, 2-(Furan-2-yl)-N^5-(2-(4-(4-(2-methoxyethoxy)phenyl)piperazin-1-yl)ethyl)thiazolo[5,4-d]pyrimidine-5,7-diamine]	452 ± 38	1490 ± 126		18.3 ± 1.9	17	> 10000				15.2 ± 1.3	Inverse agonist	−51 ± 5			
Nc1nc(NCCc2ccc(O)cc2)nc2nc(-c3ccco3)nn12 [ZM 241385, reference compound]													672 ± 51		
Nc1nc(NCCN2CCN(Cc3ccccc3)CC2)nc2sc(-c3ccco3)nc12 [compound 12, N^5-(2-(4-Benzylpiperazin-1-yl)ethyl)-2-(furan-2-yl)thiazolo[5,4-d]pyrimidine-5,7-diamine]	798 ± 72	> 10000	17	92 ± 8	26	> 10000			133 to 135						
Nc1nc(NCCN2CCN(C(=O)c3ccco3)CC2)nc2sc(-c3ccco3)nc12 [compound 15, (4-(2-((7-Amino-2-(furan-2-yl)thiazolo[5,4-d]pyrimidin-5-yl)amino)ethyl)piperazin-1-yl)(furan-2-yl)methanone]	436 ± 36	> 10000	23	10.8 ± 1	16	> 10000				9.42 ± 0.87	Inverse agonist	−67 ± 5			
CCOC(=O)c1ccc(N2CCN(CCNc3nc(N)c4nc(-c5ccco5)sc4n3)CC2)cc1 [compound 16, Ethyl 4-(4-(2-((7-amino-2-(furan-2-yl)thiazolo[5,4-d]pyrimidin-5-yl)amino)ethyl)piperazin-1-yl) benzoate]	> 10000	> 10000	34	264 ± 24	26	> 10000	31								
Nc1nc(N2CCN(CCN3CCCC3)CC2)nc2sc(-c3ccco3)nc12 [compound 8, 2-(Furan-2-yl)-5-(4-(2-(pyrrolidin-1-yl)ethyl)piperazin-1-yl)thiazolo[5,4-d]pyrimidin-7-amine]	638 ± 56	> 10000	25		19	> 10000									
Nc1nc(NCC2CCN(Cc3ccccc3)CC2)nc2sc(-c3ccco3)nc12 [compound 19, N^5-((1-Benzylpiperidin-4-yl)methyl)-2-(furan-2-yl)thiazolo[5,4-d]pyrimidine-5,7-diamine]	365 ± 29	> 10000	35	15.2 ± 1.7	18	> 10000				14.8 ± 1.4	Inverse agonist	−64 ± 4			
CN(C)CCN1CCN(c2nc(N)c3nc(-c4ccco4)sc3n2)CC1 [compound 7, 5-(4-(2-(Dimethylamino)ethyl)piperazin-1-yl)-2-(furan-2-yl)thiazolo[5,4-d]pyrimidin-7-amine]	345 ± 28	> 10000	34	29 ± 3	23	> 10000			183 to 186						
Nc1nc(N2CCN(C(=O)c3ccco3)CC2)nc2sc(-c3ccco3)nc12 [compound 6, (4-(7-Amino-2-(furan-2-yl)thiazolo[5,4-d]pyrimidin-5-yl)piperazin-1-yl)(furan-2-yl)methanone]	2770 ± 249	816 ± 74		137 ± 11	10	> 10000			227 to 229						
Nc1nc(NCC2CCN(CCc3ccccc3)CC2)nc2sc(-c3ccco3)nc12 [compound 21, 2-(Furan-2-yl)-N^5-((1-phenethylpiperidin-4-yl)methyl)thiazolo[5,4-d]pyrimidine-5,7-diamine]	247 ± 18	> 10000	21	483 ± 34	27	> 10000									
Nc1nc(NCCN2CCN(CCc3ccccc3)CC2)nc2sc(-c3ccco3)nc12 [compound 13, 2-(Furan-2-yl)-N^5-(2-(4-phenethylpiperazin-1-yl)ethyl)thiazolo[5,4-d]pyrimidine-5,7-diamine]	522 ± 47	> 10000	33	37 ± 3	29	> 10000									
Nc1nc(NCCN2CCN(c3ccccc3)CC2)nc2sc(-c3ccco3)nc12 [compound 11, 2-(Furan-2-yl)-N^5-(2-(4-phenylpiperazin-1-yl)ethyl)thiazolo[5,4-d]pyrimidine-5,7-diamine]	102 ± 9	> 10000	15		13	> 10000				7.42 ± 0.68	Inverse agonist	−52 ± 4		good affinities	8.6 nM and 8.62 nM
